pIC50: −log10 of the molar value.
Assays:
[1] = target: T1, Sterol O-acyltransferase 1 (Mus musculus, UniProt Q61263); experiment: Inhibition of Acyl coenzyme A:cholesterol acyltransferase in J774 Macrophage cell culture; assay type: cell-based
T1 sequence (Q61263 whole entry): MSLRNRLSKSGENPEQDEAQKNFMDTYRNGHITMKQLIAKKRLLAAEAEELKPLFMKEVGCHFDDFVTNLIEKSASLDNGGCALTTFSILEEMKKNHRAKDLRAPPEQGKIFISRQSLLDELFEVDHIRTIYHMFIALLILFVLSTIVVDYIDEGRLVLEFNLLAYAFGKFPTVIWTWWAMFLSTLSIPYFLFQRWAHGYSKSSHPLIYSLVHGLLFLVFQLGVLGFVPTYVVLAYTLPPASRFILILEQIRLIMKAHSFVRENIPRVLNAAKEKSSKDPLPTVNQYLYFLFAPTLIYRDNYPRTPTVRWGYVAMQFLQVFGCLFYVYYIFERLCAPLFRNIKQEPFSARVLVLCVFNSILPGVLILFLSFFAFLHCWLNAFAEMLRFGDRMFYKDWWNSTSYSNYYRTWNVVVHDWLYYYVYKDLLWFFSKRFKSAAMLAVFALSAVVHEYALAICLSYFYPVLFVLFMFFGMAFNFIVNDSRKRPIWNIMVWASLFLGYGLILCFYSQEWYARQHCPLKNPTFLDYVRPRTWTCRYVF

[2] = target: T2, Sterol O-acyltransferase 1 (Rattus norvegicus, UniProt O70536); experiment: In vitro inhibition of Acyl coenzyme A:cholesterol acyltransferase in rat hepatic microsomes was measured by using AIV assay; design: species or system Liver
T2 sequence (O70536 whole entry): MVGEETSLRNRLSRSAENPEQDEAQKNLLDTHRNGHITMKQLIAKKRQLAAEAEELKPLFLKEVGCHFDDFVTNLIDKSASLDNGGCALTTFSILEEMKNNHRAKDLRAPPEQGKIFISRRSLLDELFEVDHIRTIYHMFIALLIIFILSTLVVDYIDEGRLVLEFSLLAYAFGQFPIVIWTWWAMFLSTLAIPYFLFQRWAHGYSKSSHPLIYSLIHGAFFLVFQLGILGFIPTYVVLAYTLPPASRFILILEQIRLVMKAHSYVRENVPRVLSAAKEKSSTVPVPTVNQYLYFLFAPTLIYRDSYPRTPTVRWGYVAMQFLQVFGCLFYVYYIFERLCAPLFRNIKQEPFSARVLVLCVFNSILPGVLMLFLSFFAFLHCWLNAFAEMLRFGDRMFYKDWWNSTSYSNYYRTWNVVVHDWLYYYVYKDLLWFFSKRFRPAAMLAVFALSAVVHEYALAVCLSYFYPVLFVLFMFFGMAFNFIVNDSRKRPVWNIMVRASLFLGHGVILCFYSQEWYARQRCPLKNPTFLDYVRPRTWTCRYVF

[3] = system: Cricetinae gen. sp.; experiment: In vivo cholesterol lowering at a single dose of 25 mg/kg in the hamster was determined; assay type: functional, Cricetulus griseus
[4] = system: Cricetinae gen. sp.; experiment: Tested for effective dose required to lower the serum cholesterol levels in hamsters; assay type: functional, Cricetulus griseus

Row | SMILES | pIC50 [1] | pIC50 [2] | Activity [3] [%] | ED50 [4] [mg/kg]
1 | COCCOCCN(CCCCCSc1nc(-c2ccc(OC)cc2)c(-c2ccc(OC)cc2)[nH]1)c1nc2ccccc2o1 | 7.10 | 7.40 |  | 
2 | CC(CCCSc1nc(-c2ccccc2)c(-c2ccccc2)[nH]1)(CNc1nc2ccccc2o1)c1ccccc1 (configuration not stated) | 5.30 |  |  | 
3 | CCCCN(CCCCCSc1nc(-c2ccc(OC)cc2)c(-c2ccc(OC)cc2)[nH]1)c1nc2cc(Cl)c([N+](=O)[O-])cc2o1 | 6.00 |  |  | 
4 | COc1ccc(-c2nc(SCC(C)(CSc3nc4ccccc4o3)c3ccccc3)[nH]c2-c2ccc(OC)cc2)cc1 (configuration not stated) | 5.49 |  |  | 
5 | COc1ccc(-c2nc(SCCCCCSc3nc4ncncc4[nH]3)[nH]c2-c2ccc(OC)cc2)cc1 | 6.06 |  |  | 
6 | CCCCCCCN(CCCCSc1nc(-c2ccc(OC)cc2)c(-c2ccc(OC)cc2)[nH]1)c1nc2ccccc2o1 | 6.30 |  |  | 
7 | CCCCCCCN(CCCCCSc1nc(-c2ccc(OC)cc2)c(-c2ccc(OC)cc2)[nH]1)c1nc2ccccc2o1 | 7.10 | 7.40 |  | 
8 | COc1ccc(-c2nc(SCCCCCn3c(C(C)C)nc4ccccc43)[nH]c2-c2ccc(OC)cc2)cc1 | 6.49 | 6.64 |  | 
9 | COc1ccc(-c2nc(SCCCCCSc3nc(-c4ccc(OC)cc4)c(-c4ccc(OC)cc4)[nH]3)[nH]c2-c2ccc(OC)cc2)cc1 | 6.70 | 6.66 |  | 
10 | CN(C)c1ccc(-c2nc(SCCCCCSc3nc(-c4ccc(N(C)C)cc4)c(-c4ccc(N(C)C)cc4)[nH]3)[nH]c2-c2ccc(N(C)C)cc2)cc1 | 7.22 | 7.05 |  | 
11 | c1ccc(-c2nc(SCCCCCSc3nc(-c4ccccc4)c(-c4ccccc4)[nH]3)[nH]c2-c2ccccc2)cc1 | 5.16 | 7.52 |  | 
12 | COc1ccc(-c2nc(SCCCCCn3c4ccccc4c4ccccc43)[nH]c2-c2ccc(OC)cc2)cc1 | 4.25 | 4.30 |  | 
13 | COc1ccc(-c2nc(SCCCCCSc3ncnc4nc[nH]c34)[nH]c2-c2ccc(OC)cc2)cc1 | 5.44 |  |  | 
14 | COc1ccc(-c2nc(SCCCCCn3c(Nc4ccccc4)nc4ccccc43)[nH]c2-c2ccc(OC)cc2)cc1 | 6.19 | 6.12 |  | 
15 | CN(C)c1ccc(-c2nc(SCCCCCNc3nc4ccccc4o3)[nH]c2-c2ccc(N(C)C)cc2)cc1 | 7.05 |  |  | 
16 | CCN(CCCCCSc1nc(-c2ccccc2)c(-c2ccc(SC)cc2)[nH]1)c1nc2ccccc2o1 | 6.30 | 6.15 |  | 

Row | SMILES | pIC50 [1] | pIC50 [2] | Activity [3] [%] | ED50 [4] [mg/kg]
17 | Cc1cc(C)n(CCCCCSc2nc(-c3ccc(N(C)C)cc3)c(-c3ccc(N(C)C)cc3)[nH]2)n1 | 6.60 |  |  | 
18 | CC(C)c1nc2ccccc2n1CCCCCSc1nc(-c2ccc(N(C)C)cc2)c(-c2ccc(N(C)C)cc2)[nH]1 | 7.10 | 6.40 |  | 
19 | COc1ccc(-c2nc(SCCCCCSc3nc4c([nH]3)c(=O)n(C)c(=O)n4C)[nH]c2-c2ccc(OC)cc2)cc1 | 5.08 |  |  | 
20 | c1ccc(-c2nc(SCc3cccc(C4(CNc5nc6ccccc6o5)CCCC4)c3)[nH]c2-c2ccccc2)cc1 | 5.23 |  |  | 
21 | c1ccc(-c2nc(SCCCCCSc3ncnc4nc[nH]c34)[nH]c2-c2ccccc2)cc1 | 5.12 |  |  | 
22 | COc1ccc(-c2nc(SCCCCCn3c(SC)nc4ccccc43)[nH]c2-c2ccc(OC)cc2)cc1 | 6.02 | 5.85 |  | 
23 | CCN(CCCCCSc1nc(-c2ccc(N(C)C)cc2)c(-c2ccc(N(C)C)cc2)[nH]1)c1nc2ccccc2o1 | 7.30 |  |  | 
24 | CC(C)c1nc2ccccc2n1CCCCCSc1nc(-c2ccccc2)c(-c2ccccc2)[nH]1 | 6.15 | 6.16 |  | 
25 | CCCCN(CCCCCSc1nc(-c2ccc(OC)cc2)c(-c2ccc(OC)cc2)[nH]1)c1nc2cc(C(C)(C)C)ccc2o1 | 7.15 | 7.10 |  | 
26 | CCCCCCCN(CCCCCSc1nc(-c2ccccc2)c(-c2ccccc2)[nH]1)c1nc2ccccc2s1 | 6.18 |  |  | 
27 | COc1ccc(-c2nc(SCCCCCSc3nc4ccccc4[nH]3)[nH]c2-c2ccc(OC)cc2)cc1 | 6.08 | 6.20 |  | 
28 | CCCCCCCN(CCCCCSc1nc(-c2ccccc2)c(-c2ccccc2)[nH]1)c1nc2ccccc2o1 | 7.70 | 6.52 | 30 | 
29 | CCCCCCCN(CCCCCSc1nc(-c2ccc(OC)cc2)c(-c2ccc(OC)cc2)[nH]1)c1nc2ccccc2[nH]1 | 6.31 | 7.05 |  | 
30 | CCN(CCCCCSc1nc(-c2ccc(OC)cc2)c(-c2ccc(OC)cc2)[nH]1)c1nc2ccccc2o1 | 7.05 | 6.85 |  | 
31 | CCCCN(CCCCCSc1nc(-c2ccc(OC)cc2)c(-c2ccc(OC)cc2)[nH]1)c1nc2ccccc2o1 | 7.15 | 7.10 |  | 
32 | CCCCCCCN(CCCCCSc1nc(-c2ccccc2)c(-c2ccccc2)[nH]1)C(=O)Nc1ccc(F)cc1F [LECIMIBIDE] | 6.00 |  |  | 3

Reference: ChEMBL document CHEMBL1128040, “Acyl CoA:cholesterol acyltransferase (ACAT) inhibitors: heterocyclic bioisosteres for the urea group in DuP 128” (Bioorg Med Chem Lett, 1995)
